In the METLIN SMRT retention time set (Domingo-Almenara et al. 2019) one finds RP-LC retention time data, which are given here for 80 compounds.

The series is described as follows: gradient 5% acetonitrile 3 min, to 50% in 2 min, to 85% in 15 min, held 3 min, 100 µL/min. As to conditions: column: Zorbax Extend-C18 2.1 x 50 mm; eluents: water / acetonitrile, 0.1% formic acid. In outline:
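Standards, all pure, were combined into mixtures of ~100 molecules and run at 100 μL/min on a Zorbax Extend-C18 column (2.1 × 50 mm, 1.8 μm) with water and acetonitrile, each containing 0.1% formic acid. A coupled quadrupole time-of-flight mass spectrometer operated in positive and negative ionization mode. Retention time values come from computationally picked adduct peaks, each inspected manually.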
Take `COC(=O)c1ccc(NC(=O)Cn2c3cc(Cl)ccc3c(=O)n2C(C)(C)C)cc1`: the RP-LC retention time is 1300 s.
The value for `Cc1ccc(-c2ncc3c(=O)n(CC(=O)NC(C)C)c(=O)n(C)c3n2)cc1` was 854 s; that for `CCOC(=O)c1c(C)[nH]c(C)c1S(=O)(=O)N1CCC(C(=O)Nc2ccc(NC(C)=O)cc2)CC1` was 666 s; that for `CCn1cc(-c2nc(C(=O)NCc3ccc(F)cc3Cl)cs2)c2cccnc21` was 1070 s.
In the case of `O=C(c1cc(-c2ccncc2)nc2ccc(Cl)cc12)N1CCN(c2ccccn2)CC1` it was 604 s; in that of `COC(=O)c1nnn(-c2ccccc2C(F)(F)F)c1N`, 936 s; in that of `Cc1ccc(CNS(=O)(=O)c2cc(-c3[nH]ncc3C(=O)N3CCCC3)oc2C)cc1C`, 768 s.
The value for `Cc1ccccc1C1CCCN1C(=O)c1cnn2cc(Br)cnc12` (stereo not given) was 869 s; that for `CCOc1ccc(N2C(=O)CN(CCc3ccccc3F)[C@H]3CS(=O)(=O)C[C@H]32)cc1` was 840 s; that for `CC(C)(C)NC(=O)N1CCOc2ccccc21` was 892 s.
Regarding `CCn1cc(CCN2CCN(C(=O)c3cccs3)CC2)c2cccnc21`, the RP-LC retention time was found to be 589 s.
In the case of `CCNc1cc(C)nc(N2CCN(C(=O)C(C)C)CC2)n1` it was 598 s.
Compound `O=S(=O)(Cc1ccccc1)N1CCC(c2noc(-c3ccncc3)n2)C1` (stereo not given) yielded an RP-LC retention time of 812 s.
In the case of `CN(C)C(=O)c1cn(C2CN(C(=O)CCc3c[nH]c4ccccc34)C2)nn1` it was 652 s; in that of `Cc1[nH]c2ccccc2c1C(=O)C(=O)NCC1COc2ccccc2O1` (stereo not given), 832 s.
The value for `CC(C)Cc1ccc([C@@H](C)C(=O)NS(C)(=O)=O)cc1` was 1070 s.
In the case of `CN(C)C(=O)c1ccc2c(c1)nnn2CCNC(=O)Nc1ccc(Cl)cc1` it was 678 s; in that of `Cc1cc2c(=O)n(CC(=O)Nc3ccc(F)c(F)c3)ccc2s1`, 826 s.
`CC(=O)NCC1CNCC12CCCCC2` (stereo not given) came in with an RP-LC retention time of 509 s.
On to `CN(C)c1ccc(NC(=O)Cn2nc3c(Oc4ccc(Cl)cc4)nccn3c2=O)cc1`, for which the RP-LC retention time was determined as 674 s.
In the case of `Cn1c(=O)c2nc(S(=O)(=O)CCC(=O)Nc3ccc(F)cc3Cl)n(C)c2n(C)c1=O` it was 758 s; in that of `O=C(Cn1c(=O)c(=O)n(Cc2ccccc2)c2ncccc21)NCc1ccccn1`, 643 s.
In the case of `COCCCNC(=O)C1CCN(c2ccc(Sc3ccc(C(C)C)cc3)nn2)CC1` it was 853 s.
In the case of `Clc1cccc(-c2noc(Cc3nc(-c4cccs4)cs3)n2)c1` it was 1270 s.
Compound `COc1ccc(Cl)cc1NC(=O)Cc1nnc(-c2ccc3ncccc3c2)o1` came in with an RP-LC retention time of 797 s.
In the case of `Cc1cccc(C)c1OCC(O)Cn1c(C2CC2)nc2ccccc21` (stereo not given) it was 710 s.
In the case of `COc1cccc(-c2nc(-c3ccc4c(c3)oc(=O)n4C)no2)c1OC`, the RP-LC retention time came to 959 s.
The value for `CN1CCC(OC(c2ccccc2)c2ccccc2)CC1` was 760 s; that for `COc1cc(NC(=O)c2noc3c2CCCC3)cc(OC)c1OC` was 876 s.
The value for `COc1ccc(C(=O)N2C[C@@H]3C[C@H](NC(=O)c4cccs4)[C@H]2C3)c(OC)c1` was 701 s.
In the case of `CC1CCN(C(=O)C2=NN(CC(=O)OC(C)C)c3ccccc3S2(=O)=O)CC1` it was 952 s.
Compound `CCOc1ccccc1-c1noc(-c2nnn3c2COC(c2cccc(OC)c2)C3)n1` (stereo not given) gave an RP-LC retention time of 1080 s.
The value for `CCN1c2ccccc2C(=O)NC12CCN(C(=O)c1cccc(C)c1)CC2` was 805 s.
The value for `COC1CCC12CCN(C(=O)c1conc1C)CC2` (stereo not given) was 679 s.
`CCc1ccc(OCC(=O)N(Cc2ccc(N(C)C)cc2)C2CCS(=O)(=O)C2)cc1` (stereo not given) displayed an RP-LC retention time of 792 s.
In the case of `O=C(Nc1nc(-c2ccccc2)c(-c2ccccc2)s1)C1=COCCO1` it was 1060 s.
In turn, `Cc1ccc(S(=O)(=O)CCc2nc3ccccc3n2CC(=O)O)cc1` returned an RP-LC retention time of 607 s.
In the case of `CCc1ccc(NC(=O)CSc2nccc(N3CCN(c4cc(C)ccc4C)CC3)n2)cc1` it was 995 s; in that of `CCCCN1CCN(C(=O)C2CCN(c3nnc(-c4ccc(C)cc4)o3)CC2)CC1`, 632 s; in that of `Cc1nc(-c2csc(S(=O)(=O)N3CCCC(C(=O)Nc4cccc(C#N)c4)C3)c2)no1` (stereo not given), 930 s.
In the case of `Cn1cc(C2c3nccn3CCCN2S(=O)(=O)c2cccc(C(F)(F)F)c2)cn1` (stereo not given) it was 656 s; in that of `COc1ccc(CNC(=O)NC2CCN(c3ccc(F)cc3)C2=O)cc1` (stereo not given), 697 s; in that of `CCc1ccc(C2=C(C)C(N3CCCN(C(=O)CC(C)C)CC3)=NS2(=O)=O)cc1`, 874 s.
`CC(Cc1ccco1)NC(=O)c1ccc(N2CCCCC2)c(S(=O)(=O)N2CCCCC2)c1` (stereo not given) yielded an RP-LC retention time of 1190 s.
In the case of `O=C(Nc1ccc(F)c(Cl)c1)N1CCC(N2CCN(Cc3ccccc3)C2=O)CC1` it was 899 s.
For `COc1cc(-c2c(NC(=O)c3ccco3)sc3ccccc3c2=O)cc(OC)c1OC`, the RP-LC retention time worked out at 828 s.
`COC(=O)c1cccc(C(=O)Nc2ccccc2)n1` gave an RP-LC retention time of 800 s.
In the case of `Cc1nc(-c2ccncc2)nc2c1CCC(=O)N2Cc1ccco1` it was 666 s; in that of `CCN1CCn2c(nc3cc(C(=O)NCC4CCCCC4)ccc32)C1=O`, 702 s; in that of `Cc1nc(N2CCOCC2)cc(N2CCN(C(=O)c3cccs3)CC2)n1`, 607 s.
`Cc1noc(C)c1CCNC(=O)C1CCCN(c2nc3ccccc3n(Cc3ccccc3)c2=O)C1` (stereo not given) showed an RP-LC retention time of 974 s.
In the case of `Cc1[nH]c(C(=O)N2CCCC(C(=O)NCc3ccc4c(c3)OCO4)C2)c(C)c1C(=O)OC(C)C` (stereo not given) it was 842 s; in that of `Cc1ccc(NC(=O)N2CCCC2c2nc(-c3ccccc3C)no2)cc1C` (stereo not given), 593 s.
The value for `Cc1ccc(C)c(NC(=O)c2cn(-c3cc(-c4nc(C5CC5)no4)ccn3)cn2)c1` was 1100 s; that for `CC(C)NC(=O)C1CCCCN1S(=O)(=O)c1ccc(Br)cc1` (stereo not given) was 969 s.
`O=C(Nc1cc(F)ccc1F)c1cc2sccc2n1Cc1ccc(F)cc1`: the RP-LC retention time worked out at 1200 s.
The value for `CCN(CCCNS(=O)(=O)c1ccc2c(c1)CCCC(=O)N2)c1ccccc1` was 618 s; that for `Nc1ccccc1Sc1cc(Cl)nnc1Cl` was 983 s.
The value for `COC(=O)Cc1c(C(=O)OC)nnn1-c1ccc(OC)cc1` was 862 s.
In the case of `Fc1ccc(-c2nc(-c3ccc(-n4cccn4)nc3)no2)c(F)c1` it was 1170 s.
As to `O=C1COc2ccccc2N1Cc1nc(-c2ccc(F)c(Cl)c2)no1`, the RP-LC retention time was found to be 1090 s.
Turning to `COC(=O)c1cc2c(=O)n(-c3ccccc3Cl)ccc2nc1C`, the RP-LC retention time was found to be 830 s.
The value for `COCCN1C(=O)[C@H]2CN(Cc3cccc(C(F)(F)F)c3)C[C@H]2C1=O` was 694 s; that for `COc1ccc(Br)cc1S(=O)(=O)NC(=O)/C=C/c1ccccc1Cc1ccc2ccccc2c1` was 1280 s; that for `CCOC(=O)c1c(C)[nH]c(C(=O)N2CCCC(C(=O)N3CCOCC3)C2)c1C` (stereo not given) was 672 s.
In the case of `O=C(Nc1ccc(Cl)c(Cl)c1)N1CCN(Cc2ccsc2)CC1` it was 598 s; in that of `COc1ccc(-c2nc(C)cc(C)c2CNS(=O)(=O)c2ccccc2F)cc1`, 650 s.
In the case of `CN(CCc1noc(COc2ccc(F)cc2)n1)C(=O)Nc1ccc(F)c(Cl)c1` it was 953 s.
Turning to `Cc1ccc(-c2cc3c(=O)n(Cc4nc(-c5ccc(F)cc5)no4)ccn3n2)cc1`, the RP-LC retention time was 1330 s.
The value for `Cc1cc(OCC(=O)N2CCC3(O)CCCCC3C2)c2c3c(c(=O)oc2c1)CCC3` (stereo not given) was 803 s; that for `CN1c2ccc(Cl)cc2C(=O)NC12CCN(C(=O)NCCc1ccccc1)CC2` was 819 s; that for `O=c1c2cc3c(cc2nc(SCc2nc(-c4ccccc4)no2)n1CC1CCCO1)OCO3` (stereo not given) was 1100 s.
The value for `Cc1csc(-n2nc(C)c(CC(=O)Nc3ccc(Cl)cc3)c2C)n1` was 997 s.
In the case of `CCCc1ccc(S(=O)(=O)N2CCC(n3cnnc3C)CC2)cc1` it was 767 s; in that of `Cc1ccc(N2CC(c3noc(-c4ccc(N(C)C)cc4)n3)CC2=O)cc1` (stereo not given), 980 s; in that of `O=C(NCCc1ccco1)c1cc2n(n1)CCCN(Cc1ccc(Cl)cc1)C2=O`, 857 s.
In the case of `O=C(C1CCCN(c2cnc3nccnc3c2)C1)N1CCN(c2ccccc2)CC1` (stereo not given), the RP-LC retention time stood at 715 s.
As to `COCCN1C(=O)[C@H]2CN(Cc3ccc(C)c(C)c3)C[C@H]2C1=O`, the RP-LC retention time is 577 s.
In the case of `CCn1cc(-c2nc(C)c(C(=O)NCc3cccc(C)c3)s2)c2cccnc21` it was 989 s; in that of `O=C(c1cccc(Cn2cncn2)c1)N1CCC2(CC1)OCCO2`, 607 s.
